Laboratory results as given in patent US20230023285A1, “PHARMACEUTICAL COMPOSITION FOR USE IN PREVENTING OR STOPPING METASTASES” (LOGICK ENERGETICS B.V., priority 2019, published 2023).

Key:
EpCAM = EpCAM gene expression by qPCR in MTΔECad cells; format: cell-based, mouse; settings: qPCR normalized to GAPDH
Experimental: (§1) For the stimulation of MTΔECad cells the following concentrations were used: PPS (5 μg/ml), Indomethacin (50 μM), en Pioglitazone (10 μM).
(§2) Untreated cell lines were employed as negative controls. As read-outs of adipogenesis, several approaches were tested: • 1. Oil red O staining by histochemistry. • 2. Nile Red staining by immuno-fluorescence (IF) • 3. RTqPCR (gene expression analysis) • Adiponectin (adipocyte marker) • EpCam (marker for epithelial cells) FIGS. 15a-d show stimulation schemes; FIGS. 15a-b according to prior art, and FIGS. 15c-15d according to the present invention.
(§3) Inventors studied the effect of treatment of MTΔECad cells with the different compounds and combinations on EpCAM expression as a marker for epithelial cells and Adiponectin expression as a marker for adipocytes.
(§4) Steps performed when measuring gene expression using real-time PCR.
(§5) RNA was first isolated and characterized for quantity and integrity. During a two-step reaction, cDNA was first synthesized and then used as a PCR template. The housekeeping gene GAPDH was used for normalizing the results. A normalization factor has been used for calculating each individual sample. Dividing the fluorescent data by its normalization factor produced the normalized data, which was followed by statistical analysis.

Adiponectin = Adiponectin gene expression by qPCR in MTΔECad cells; format: cell-based, mouse; settings: qPCR normalized to GAPDH
Experimental: as §1, §2, §3, §4, §5

Compound | EpCAM gene expression (EpCAM) | adiponectin gene expression (Adiponectin)
Pentosan polysulphate [PPS] | no significant effect | no effect
COc1ccc2c(c1)c(CC(=O)O)c(C)n2C(=O)c1ccc(Cl)cc1 [Indomethacin] | clearly stimulated EpCAM expression | obviously stimulated adiponectin gene expression
